Measurements from BindingDB's records for doi:10.1007/s10822-022-00478-x (Roche Innovation Center Basel, F. Hoffmann-La Roche Ltd., 2022).

Target: cAMP and cAMP-inhibited cGMP 3',5'-cyclic phosphodiesterase 10A (Homo sapiens, UniProt Q9Y233)
Test: PDE10A assay
Method in brief: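 Human PDE10A (2 ng/well) preincubated 15 min RT with compound in HEPES pH 7.5, 10 mM MgCl2, BSA, then reacted 15 min with 50 nM [3H]cGMP/cGMP substrate. Stopped with Y-Si SPA beads; bound radioactivity counted, IC50 from four-parameter logistic, pIC50 = −log10(IC50).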

SMILES	IC50 [nM]
CN(C(=O)c1c(C(=O)N2CCC2)cnn1C)c1ccn2nc(-c3ccccc3)nc2c1 [Roche-Dataset for PDE10A, Compound 1062]	1450
Cn1ncc(C(=O)N2CCC2)c1C(=O)Nc1ccn(C2CCCCC2)n1 [Roche-Dataset for PDE10A, Compound 1064]	242
Cc1ncc(C)n2nc(/C=C/c3nc(N4C[C@@H]5C[C@H]6CN(C(=O)OC(C)(C)C)C[C@]65C4)nn3C)nc12 [Roche-Dataset for PDE10A, Compound 1066]	6130
CC(C)CNC(=O)c1c(NC(=O)c2c(C(=O)N3CCC3)cnn2C)cnn1C [Roche-Dataset for PDE10A, Compound 1069]	462
CC(C)c1cc(NC(=O)c2c(C(=O)N3CCC3)cnn2C)[nH]n1 [Roche-Dataset for PDE10A, Compound 1070]	10000
CS(=O)(=O)c1ccccc1NC(=O)c1nc(C2CC2)ccc1Nc1cncnc1 [Roche-Dataset for PDE10A, Compound 1071]	27
CS(=O)(=O)N1CCC(NC(=O)c2nc(C3CC3)cnc2Nc2cncnc2)CC1 [Roche-Dataset for PDE10A, Compound 1072]	2860
Cc1cc(C)n2nc(CCc3nc4c(Cl)cc(Cl)c(C)n4n3)nc2n1 [Roche-Dataset for PDE10A, Compound 1073]	276
O=C(NC1(c2ccc(Cl)cc2)CCC1)c1nc(C2CC2)cnc1Nc1cncnc1 [Roche-Dataset for PDE10A, Compound 1074]	863
CCNC(=O)c1c(NC(=O)c2c(C(=O)N3CCC3)cnn2C)cnn1CC [Roche-Dataset for PDE10A, Compound 1076]	1920
Cn1ncc(C(=O)N2CCC2)c1C(=O)Nc1cc(C2CCC2)n[nH]1 [Roche-Dataset for PDE10A, Compound 1078]	10000
O=C(Nc1ccnnc1)c1nc(C2CC2)cnc1Nc1cncnc1 [Roche-Dataset for PDE10A, Compound 1083]	288
CC(=O)Nc1cccc(NC(=O)c2nc(C3CC3)cnc2Nc2cncnc2)n1 [Roche-Dataset for PDE10A, Compound 1084]	25
O=C(NCc1ncco1)c1nc(C2CC2)cnc1Nc1cncnc1 [Roche-Dataset for PDE10A, Compound 1086]	1030
Cn1ncc(C(=O)N2CCC2)c1C(=O)Nc1cc(C2CCC2)n(C2CCCC2)n1 [Roche-Dataset for PDE10A, Compound 1088]	853
O=C(NCc1cocn1)c1nc(C2CC2)cnc1Nc1cncnc1 [Roche-Dataset for PDE10A, Compound 1089]	1860
O=C(Nc1cnc(Cl)cn1)c1nc(C2CC2)ccc1Nc1cncnc1 [Roche-Dataset for PDE10A, Compound 1090]	146
CC1(CNC(=O)c2nc(C3CC3)cnc2Nc2cncnc2)COC1 [Roche-Dataset for PDE10A, Compound 1092]	2980
O=C(c1nc(C2CC2)cnc1Nc1cncnc1)N1CCC(N2CCOCC2)CC1 [Roche-Dataset for PDE10A, Compound 1098]	10000
CNC(=O)c1c(NC(=O)c2nc(C)c(C)nc2Nc2cncnc2)cnn1C [Roche-Dataset for PDE10A, Compound 1099]	7810
Cn1ncc(C(=O)N2CCC2)c1C(=O)Nc1cc(C2CCCCC2)n(C2CCCC2)n1 [Roche-Dataset for PDE10A, Compound 1101]	783
Cn1cc(-c2ccncc2)c(C(=O)Nc2cc(-c3ccccn3)nn2C)n1 [Roche-Dataset for PDE10A, Compound 1102]	124

SMILES	IC50 [nM]
O=C(c1ccccc1)N1CCN(C(=O)c2nc(C3CC3)cnc2Nc2cncnc2)CC1 [Roche-Dataset for PDE10A, Compound 1104]	10000
O=C(Nc1cccnn1)c1nc(C2CC2)cnc1Nc1cncnc1 [Roche-Dataset for PDE10A, Compound 1105]	271
CCOC(=O)c1nnsc1NC(=O)c1nc(C2CC2)ccc1Nc1cncnc1 [Roche-Dataset for PDE10A, Compound 1107]	36
COc1ccc2c(=O)n(C)c3c(C)nc(C)n3c2c1 [Roche-Dataset for PDE10A, Compound 1111]	2520
Cn1ncc(C(=O)N2CCC2)c1C(=O)Nc1n[nH]cc1C#N [Roche-Dataset for PDE10A, Compound 1112]	325
Cc1ncc(C)n2nc(/C=C/c3nc(N4CC[C@@H](C)[C@H]4C)nn3C)nc12 [Roche-Dataset for PDE10A, Compound 1115]	32
Cc1ncc(C)n2nc(/C=C/c3nc(N4CCN(C(=O)OC(C)(C)C)CC4)nn3C)nc12 [Roche-Dataset for PDE10A, Compound 1119]	402
CCNC(=O)c1c(NC(=O)c2c(C(=O)N3CCC3)cnn2C)cnn1C [Roche-Dataset for PDE10A, Compound 1120]	3130
CNC(=O)c1nn(C)cc1NC(=O)c1nc(C2CC2)ccc1N(C)c1cncnc1 [Roche-Dataset for PDE10A, Compound 1122]	10000
O=C(NCC(F)(F)F)c1nc(C2CC2)cnc1Nc1cncnc1 [Roche-Dataset for PDE10A, Compound 1124]	1240
C/C(=C\c1nc2c(C)ncc(C)n2n1)c1nc(Br)nn1C [Roche-Dataset for PDE10A, Compound 1125]	4820
O=C(N[C@@H]1C[C@H]2CC[C@@H]1C2)c1nc(C2CC2)cnc1Nc1cncnc1 [Roche-Dataset for PDE10A, Compound 1126]	1080
Cc1cnc(C)n2nc(/C=C/c3nc(Br)nn3C)nc12 [Roche-Dataset for PDE10A, Compound 1128]	2060
CNC(=O)c1c(NC(=O)c2c(C(=O)N3CCC3)cnn2C)cnn1C [Roche-Dataset for PDE10A, Compound 1129]	8330
Cc1cnc(C)n2nc(CCc3ncnn3C)nc12 [Roche-Dataset for PDE10A, Compound 1130]	2420
Cc1ncc(C)n2nc(CCc3nc(Br)nn3C)nc12 [Roche-Dataset for PDE10A, Compound 1131]	2480
Cc1ncc(C)n2nc(/C=C/c3nc(N4CC[C@@H](NC(=O)OC(C)(C)C)C4)nn3C)nc12 [Roche-Dataset for PDE10A, Compound 1132]	752
C/C(=C/c1nc2c(C)ncc(C)n2n1)c1nc(Br)nn1C [Roche-Dataset for PDE10A, Compound 1134]	2260
Cc1cc(C)n2nc(CCc3nc(N(C)C)nn3C)nc2n1 [Roche-Dataset for PDE10A, Compound 1140]	535
Cc1cnc(C)n2nc(/C=C/c3ncnn3C)nc12 [Roche-Dataset for PDE10A, Compound 1142]	3910
O=C(N[C@]12C[C@H]3C[C@H](C[C@H](C3)C1)C2)c1nc(C2CC2)cnc1Nc1cncnc1 [Roche-Dataset for PDE10A, Compound 1143]	788

Next, values leading:

IC50 [nM]	SMILES
437	Cc1cc(NC(=O)c2c(C(=O)N3CCC3)cnn2C)nn1C1CCCC1 [Roche-Dataset for PDE10A, Compound 1063]
327	COCCn1ccc(NC(=O)c2c(C(=O)N3CCC3)cnn2C)n1 [Roche-Dataset for PDE10A, Compound 1067]
207	Cc1cc(NC(=O)c2c(C(=O)N3CCC3)cnn2C)cc(NC(=O)OC(C)(C)C)n1 [Roche-Dataset for PDE10A, Compound 1068]
329	Cn1ncc(C(=O)N2CCC2)c1C(=O)Nc1ccn(CC2CC2)n1 [Roche-Dataset for PDE10A, Compound 1075]
131	Cc1cc(NC(=O)c2c(C(=O)N3CCC3)cnn2C)cc(N)n1 [Roche-Dataset for PDE10A, Compound 1077]
551	Cn1ncc(C(=O)N2CCC2)c1C(=O)Nc1ccn(CCF)n1 [Roche-Dataset for PDE10A, Compound 1082]
496	Cn1ncc(C(=O)N2CCC2)c1C(=O)Nc1ccn(C2CCC2)n1 [Roche-Dataset for PDE10A, Compound 1093]
785	Cn1ncc(C(=O)N2CCC2)c1C(=O)Nc1ccn(-c2ccccn2)n1 [Roche-Dataset for PDE10A, Compound 1095]
761	Cn1ncc(C(=O)N2CCC2)c1C(=O)Nc1ccn(C(F)F)n1 [Roche-Dataset for PDE10A, Compound 1100]
672	Cn1ncc(C(=O)N2CCC2)c1C(=O)Nc1ccn(C(C)(C)C)n1 [Roche-Dataset for PDE10A, Compound 1109]
3150	Cn1ncc(C(=O)N2CCC2)c1C(=O)Nc1ccn(CCC#N)n1 [Roche-Dataset for PDE10A, Compound 1114]
404	CCCn1ccc(NC(=O)c2c(C(=O)N3CCC3)cnn2C)n1 [Roche-Dataset for PDE10A, Compound 1116]
1990	CCOC(=O)c1cnn(C)c1C(=O)Nc1ccc2nc(N3CCOCC3)nn2c1 [Roche-Dataset for PDE10A, Compound 1117]
1830	CC(C)n1ccc(NC(=O)c2c(C(=O)N3CCC3)cnn2C)n1 [Roche-Dataset for PDE10A, Compound 1118]
1320	CCn1ccc(NC(=O)c2c(C(=O)N3CCC3)cnn2C)n1 [Roche-Dataset for PDE10A, Compound 1121]
8.14	Cn1ncc(C(=O)N2CCC2)c1C(=O)Nc1ccc2cc(-c3ccccc3)nn2n1 [Roche-Dataset for PDE10A, Compound 1133]
6120	CCn1nc(NC(=O)c2c(C(=O)N3CCC3)cnn2C)cc1C1CC1 [Roche-Dataset for PDE10A, Compound 1135]
868	CN(C)C(=O)c1cnn(Cc2ccccc2)c1C(=O)Nc1ccn2nc(N3CCOCC3)nc2c1 [Roche-Dataset for PDE10A, Compound 1136]
1430	Cn1ccc(NC(=O)c2c(C(=O)N3CCC3)cnn2C)n1 [Roche-Dataset for PDE10A, Compound 1137]
1920	Cn1nccc1NC(=O)c1c(C(=O)N2CCC2)cnn1C [Roche-Dataset for PDE10A, Compound 1138]
4650	Cc1cc(NC(=O)c2c(C(=O)N3CCC3)cnn2C)cc(Br)n1 [Roche-Dataset for PDE10A, Compound 1139]
